Experimental data as given in patent publication US20240067655A1 (NEURON23, INC., priority 2020, published 2024).

Target: T1, wt human LRRK2, catalytic site (Homo sapiens, UniProt Q5S007)
T1 construct: wt human LRRK2, catalytic site; purchased ThermoFisher/USA
Test: TR-FRET LanthaScreen Tb Kinase Activity Assay (Example 71)
Format: biochemical
Conditions: compounds of Table 4, 38 uM ATP, method names only wt human LRRK2, read-out: IC50, Inhibitory Activity Toward LRRK2 (Wt) and LRRK2 (G2019)
Procedure: The compounds in Table 4 were tested for their inhibitory effect on LRRK2 kinases according to the following procedures.
The basic protocol for TR-FRET LanthaScreen Tb Kinase Activity Assay inhibitor studies were performed as follows. LanthaScreen Kinase Activity Assays (ThermoFisher/USA) to evaluate inhibitors were performed by addition of 100 nl of test compound in corresponding DMSO dilutions/5 μl of kinase/fluorescein-ERM(LRRKtide) peptide mixture, 5 μl of ATP into 384 well small volume plates. After incubation for 120 minutes at room temperature, the detection reagents containing Tb-anti-pLRRKtide antibody were added to monitor phosphrylation level of peptide. Then, after 60 min minutes incubation at room temperature plates were read in Envision. Data analysis of emission ratios was according to LanthaScreen Tb Kinase Activity Assay protocol.
Kinase and assay components were adjusted to final concentrations according to the kit protocol. For LRRK2: 2 nM wt human LRRK2, catalytic site, catalytic site (ThermoFisher/USA), 400 nM peptide, 38 uM ATP in 1× Kinase Buffer A.
Basic protocol for TR-FRET LanthaScreen Tb Kinase Activity Assay inhibitor studies involved two steps:
Enzymatic step: Addition of 100 nl of test compound in corresponding DMSO dilutions, 5 μl of kinase/substrate mixture, 5 μl of ATP into 384 well small volume plates. Incubation for 120 minutes at room temperature.
Detection step: Addition of 10 μl EDTA & antibody, read plate after 60 minutes. Data analysis of emission ratios according to KinEASE assay protocol.

T1 sequence (Q5S007 1879-2138 limits assumed): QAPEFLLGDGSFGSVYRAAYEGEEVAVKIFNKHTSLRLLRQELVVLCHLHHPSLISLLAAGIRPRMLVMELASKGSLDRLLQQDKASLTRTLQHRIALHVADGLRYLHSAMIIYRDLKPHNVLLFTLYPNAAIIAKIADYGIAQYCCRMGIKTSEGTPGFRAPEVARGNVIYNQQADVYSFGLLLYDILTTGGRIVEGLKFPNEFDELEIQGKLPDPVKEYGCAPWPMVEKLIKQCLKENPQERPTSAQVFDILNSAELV

| SMILES | IC50 |
| --- | --- |
| C[C@@H]1CCN2C(c3c(F)cccc3F)=Nc3cn[nH]c3-c3cnn1c32 (single isomer, unassigned) [Compound 346] | 10 to 100 nM |
| C[C@H]1CCN2C(c3c(F)cccc3F)=Nc3cn[nH]c3-c3cnn1c32 (single isomer, unassigned) [Compound 347] | < 10 nM |
| C[C@@H]1CN2C(c3c(F)cccc3F)=Nc3cn[nH]c3-c3cnn(c32)C1 (single isomer, unassigned) [Compound 349] | < 10 nM |
| C[C@H]1CN2C(c3c(F)cccc3F)=Nc3cn[nH]c3-c3cnn(c32)C1 (single isomer, unassigned) [Compound 350] | 10 to 100 nM |
| Cc1cccc(F)c1C1=Nc2cn[nH]c2-c2cnn3c2N1CCC3 [Compound 340, 9-(2-fluoro-6-methylphenyl)-3,6,7,8-tetrahydro-2,3,5,5a,8a,10 hexaazabenzo[cd]cyclopenta[h]azulene] | < 10 nM |
| Fc1cccc(Cl)c1C1=Nc2cn[nH]c2-c2cnn3c2N1CCC3 [Compound 341, 9-(2-chloro-6-fluorophenyl)-3,6,7,8-tetrahydro-2,3,5,5a,8a,10-hexaazabenzo[cd]cyclopenta[h]azulene] | < 10 nM |
| Cc1cc(F)c(C2=Nc3cn[nH]c3-c3cnn4c3N2CCC4)c(F)c1 [Compound 343, 9-(2,6-difluoro-4-methylphenyl)-3,6,7,8-tetrahydro-2,3,5,5a,8a,10 hexaazabenzo[cd]cyclopenta[h]azulene] | < 10 nM |
| Fc1cccc(F)c1C1=Nc2cn[nH]c2-c2cnn3c2N1CCCC3 [Compound 344, 10-(2,6-difluorophenyl)-6,7,8,9-tetrahydro-3H-2,3,5,5a,9a,11-hexaazadicyclopenta[b,kl]heptalene] | 10 to 100 nM |
| CC1CCN2C(c3c(F)cccc3F)=Nc3cn[nH]c3-c3cnn1c32 (stereo not drawn) [Compound 345, 9-(2,6-difluorophenyl)-6-methyl-3,6,7,8-tetrahydro-2,3,5,5a,8a,10-hexaazabenzo[cd]cyclopenta[h]azulene] | < 10 nM |
| CC1CCn2ncc3c2N1C(c1c(F)cccc1F)=Nc1cn[nH]c1-3 (stereo not drawn) [Compound 351, 9-(2,6-difluorophenyl)-8-methyl-3,6,7,8-tetrahydro-2,3,5,5a,8a,10-hexaazabenzo[cd]cyclopenta[h]azulene] | 10 to 100 nM |
| Cc1nc2c3n1CCCN3C(c1c(F)cccc1F)=Nc1cn[nH]c1-2 [Compound 352] | > 1000 nM |
| Fc1ccc(Br)c(F)c1C1=Nc2cn[nH]c2-c2cnn3c2N1CCC3 [Compound 353, 9-(3-bromo-2,6-difluorophenyl)-3,6,7,8-tetrahydro-2,3,5,5a,8a,10-hexaazabenzo[cd]cyclopenta[h]azulene] | < 10 nM |
| OCc1cc(F)c(C2=Nc3cn[nH]c3-c3cnn4c3N2CCC4)c(F)c1 [Compound 359, (3,5-difluoro-4-(3,6,7,8-tetrahydro-2,3,5,5a,8a,10-hexaazabenzo[cd]cyclopenta[h]azulen-9-yl)phenyl)methanol] | 10 to 100 nM |
| c1ccc(C2=Nc3cn[nH]c3-c3cnn4c3N2CCC4)cc1 [Compound 361, 8-phenyl-3,4,7,9,13,14-hexazatetracyclo[7.6.1.02,6.013,16]hexadeca-1(16),2(6),4,7,14-pentaene] | 10 to 100 nM |
| Fc1ccccc1C1=Nc2cn[nH]c2-c2cnn3c2N1CCC3 [Compound 362, 9-(2-fluorophenyl)-3,6,7,8-tetrahydro-2,3,5,5a,8a,10-hexaazabenzo[cd]cyclopenta[h]azulene] | 10 to 100 nM |
| Fc1ccccc1C1=Nc2cn[nH]c2-c2cnn3c2N1CCCC3 [Compound 363, 10-(2-fluorophenyl)-6,7,8,9-tetrahydro-3H-2,3,5,5a,9a,11-hexaazadicyclopenta[b,kl]heptalene] | 100 to 1000 nM |
| Fc1cccnc1C1=Nc2cn[nH]c2-c2cnn3c2N1CCCC3 [Compound 365, 10-(3-fluoropyridin-2-yl)-6,7,8,9-tetrahydro-3H-2,3,5,5a,9a,11-hexaazadicyclopenta[b,kl]heptalene] | > 1000 nM |
| Cc1nn2c3c1-c1[nH]ncc1N=C(c1c(F)cccc1F)N3CCC2 [Compound 366, 9-(2,6-difluorophenyl)-4-methyl-3,6,7,8-tetrahydro-2,3,5,5a,8a,10-hexaazabenzo[cd]cyclopenta[h]azulene] | 100 to 1000 nM |
| Fc1ccc(F)c(C2=Nc3cn[nH]c3-c3cnn4c3N2CCC4)c1F [Compound 367, 8-(2,3,6-trifluorophenyl)-3,4,7,9,13,14-hexazatetracyclo[7.6.1.02,6.013,16]hexadeca-1(16),2(6),4,7,14-pentaene] | 10 to 100 nM |
| Fc1cccc(F)c1C1=Nc2cn[nH]c2-n2ncc3c2N1CCC3 [Compound 369, 9-(2,6-difluorophenyl)-3,6,7,8-tetrahydro-2,3,3b,4,8a,10-hexaazabenzo[cd]cyclopenta[h]azulene] | 100 to 1000 nM |
| Cc1n[nH]c2c1N=C(c1c(F)cccc1F)N1CCCn3ncc-2c31 [Compound 370, 9-(2,6-difluorophenyl)-1-methyl-3,6,7,8-tetrahydro-2,3,5,5a,8a,10-hexaazabenzo[cd]cyclopenta[h]azulene] | < 10 nM |
| Fc1cccc(F)c1C1=Nc2c(Cl)n[nH]c2-c2cnn3c2N1CCC3 [Compound 371, 5-chloro-8-(2,6-difluorophenyl)-3,4,7,9,13,14-hexazatetracyclo[7.6.1.02,6.013,16]hexadeca-1(16),2(6),4,7,14-pentaene] | < 10 nM |
| Cc1n[nH]c2c1N=C(c1c(F)cccc1F)N1CCn3ncc-2c31 [Compound 372, 8-(2,6-difluorophenyl)-5-methyl-3,4,7,9,12,13-hexazatetrahydro[7.5.1.02,6.012,15]pentadeca-1(15),2,5,7,13-pentaene] | < 10 nM |
| Fc1cccc(F)c1C1=Nc2c(Cl)n[nH]c2-c2cnn3c2N1CC3 [Compound 375, 5-chloro-3-(2,6-difluorophenyl)-2,7-dihydro-1H-2a,4,6,7,9,9a-hexaazadicyclopenta[cd,f]azulene] | < 10 nM |

Results, then the compound that gave them:

| IC50 | SMILES |
| --- | --- |
| 10 to 100 nM | Clc1cccc(Cl)c1C1=Nc2cn[nH]c2-c2cnn3c2N1CCC3 [Compound 342, 9-(2,6-dichlorophenyl)-3,6,7,8-tetrahydro-2,3,5,5a,8a,10-hexaazabenzo[cd]cyclopenta[h]azulene] |
| < 10 nM | CC1CN2C(c3c(F)cccc3F)=Nc3cn[nH]c3-c3cnn(c32)C1 (stereo not drawn) [Compound 348, 9-(2,6-difluorophenyl)-7-methyl-2,6,7,8-tetrahydro-2,3,5,5a,8a,10-hexaazabenzo[cd]cyclopenta[h]azulene] |
| < 10 nM | Cc1ccc(F)c(C2=Nc3cn[nH]c3-c3cnn4c3N2CCC4)c1F [Compound 354, 9-(2,6-difluoro-3-methylphenyl)-3,6,7,8-tetrahydro-2,3,5,5a,8a,10 Hexaazabenzo[cd]cyclopenta[h]azulene] |
| < 10 nM | Fc1ccc(Br)c(Cl)c1C1=Nc2cn[nH]c2-c2cnn3c2N1CCC3 [Compound 355, 8-(3-bromo-2-chloro-6-fluoro-phenyl)-3,4,7,9,13,14-hexazatetracyclo-[7.6.1.02,6.013,16]hexadeca-1(16),2(6),4,7,14-pentaene] |
| 10 to 100 nM | Fc1cccc(C2CC2)c1C1=Nc2cn[nH]c2-c2cnn3c2N1CCC3 [Compound 356, 9-(2-cyclopropyl-6-fluorophenyl)-3,6,7,8-tetrahydro-2,3,5,5a,8a,10-hexaazabenzo[cd]cyclopenta[h]azulene] |
| 10 to 100 nM | N#Cc1cc(F)c(C2=Nc3cn[nH]c3-c3cnn4c3N2CCC4)c(F)c1 [Compound 358] |
| 10 to 100 nM | COc1cc(F)c(C2=Nc3cn[nH]c3-c3cnn4c3N2CCC4)c(F)c1 [Compound 360, 8-(2,6-difluoro-4-methoxy-phenyl)-3,4,7,9,13,14-hexazatetracyclo[7.6.1.02,6.013,16]hexadeca-1(16),2(6),4,7,14-pentaene] |
| 100 to 1000 nM | Clc1ccccc1C1=Nc2cn[nH]c2-c2cnn3c2N1CCCC3 [Compound 364, 10-(2-chlorophenyl)-6,7,8,9-tetrahydro-3H-2,3,5,5a,9a,11-hexaazadicyclopenta[b,kl]heptalene] |
| < 10 nM | Fc1ccc(Cl)c(F)c1C1=Nc2cn[nH]c2-c2cnn3c2N1CCC3 [Compound 368, 8-(3-chloro-2,6-difluoro-phenyl)-3,4,7,9,13,14-hexazatetracyclo[7.6.1.02,6.013,16]hexadeca-1(16),2(6),4,7,14-pentaene] |
| < 10 nM | Fc1cccc(F)c1C1=Nc2cn[nH]c2-c2cnn3c2N1CC3 [Compound 373, 3-(2,6-difluorophenyl)-2,7-dihydro-1H-2a,4,6,7,9,9a-hexaazadicyclopenta[cd,f]azulene] |
| 100 to 1000 nM | Cc1nn2c3c1CCCN3C(c1c(F)cccc1F)=Nc1cn[nH]c1-2 [Compound 374, 8-(2,6-difluorophenyl)-14-methyl-1,3,4,7,9,15-hexazatetracyclo[7.6.1.02,6.013,16]hexadeca-2(6),4,7,13(16),14-pentaene] |
| 10 to 100 nM | Fc1cncc(F)c1C1=Nc2cn[nH]c2-c2cnn3c2N1CCC3 [Compound 376, 8-(3,5-difluoro-4-pyridyl)-3,4,7,9,13,14-hexazatetracyclo[7.6.1.02,6.013,16]hexadeca-1(16),2(6),4,7,14-pentaene] |
